Results from patent US20210115104A1, “AMYLIN ANALOGUES” (Zealand Pharma A/S, priority 2015, published 2021).
Like-named read-outs stand apart in the source and are kept apart here. *1 amine or outer side, *2 acyl side, *3 side chain or, on linkers, in order; H or OH if unused. Where a SMILES comes first, the peptide text is derived from it. Bridges are numbered along the chain shown (N, C = ends). [ ]: non-standard residue; d: D form. The star is where a group is joined. C20 diacid = O=C(O)CCCCCCCCCCCCCCCCCCC(=O)*; γGlu = O=C(O)[C@H](CCC(=O)[*:2])N[*:1]; Hyp = O=C(O)[C@@H]1C[C@@H](O)CN1; NMeI = CC[C@H](C)[C@H](NC)C(=O)O; Aad = N[C@@H](CCCC(=O)O)C(=O)O; Sar = CNCC(=O)O

How the values were obtained:
[1] = target: T1, human amylin receptor 3 (hAMYR3), hCTR2 co-expressed with hRAMP3 (Homo sapiens, UniProt O60896+P30988); assay: hAMYR3 cAMP assay (AlphaScreen) in COS7 cells; type: cell-based
T1 construct: expressed in transfected cells
T1 sequence (P30988 25-474): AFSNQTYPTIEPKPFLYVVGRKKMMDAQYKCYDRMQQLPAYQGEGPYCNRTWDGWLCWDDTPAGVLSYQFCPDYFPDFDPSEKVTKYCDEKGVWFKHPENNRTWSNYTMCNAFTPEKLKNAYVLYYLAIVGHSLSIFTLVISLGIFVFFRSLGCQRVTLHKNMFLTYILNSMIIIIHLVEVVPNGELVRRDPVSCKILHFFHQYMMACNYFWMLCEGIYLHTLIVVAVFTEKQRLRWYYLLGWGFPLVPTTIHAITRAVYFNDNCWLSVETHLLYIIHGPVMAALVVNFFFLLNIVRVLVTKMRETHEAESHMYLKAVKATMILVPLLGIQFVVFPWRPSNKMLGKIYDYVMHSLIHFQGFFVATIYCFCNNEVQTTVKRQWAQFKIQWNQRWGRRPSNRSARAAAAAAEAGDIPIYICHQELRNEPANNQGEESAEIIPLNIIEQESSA
T1 sequence (O60896 24-148 partner): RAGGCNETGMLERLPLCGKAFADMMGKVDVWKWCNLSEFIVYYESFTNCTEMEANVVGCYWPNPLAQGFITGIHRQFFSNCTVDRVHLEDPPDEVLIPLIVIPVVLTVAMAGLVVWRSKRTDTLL
Procedure, shortened: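 Stable COS7 clone co-expressing hCTR2 and hRAMP3 was exposed to increasing peptide concentrations in Tyrode buffer (pH 7.4) with 100 µM IBMX and 0.1% casein for 15 min at 37 °C. Lysate cAMP was measured by AlphaScreen; EC50 came from 4-parameter logistic fitting.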

[2] = Assessment of chemical stability (RP-HPLC normalized purity); type: physicochemical; conditions: for Normalized purity after 7 days, 40° C., pH 4: pH 4, 0.2 mg/ml; for Normalized purity after 7 days, 40° C., pH 4 / Normalized purity after 7 days, 40° C., pH 6 / Normalized purity after 7 days, 40° C., pH 7.5 / Normalized purity after 7 days, 40° C., pH 9: Table 1; for Normalized purity after 7 days, 40° C., pH 6: pH 6, 0.2 mg/ml; for Normalized purity after 7 days, 40° C., pH 7.5: pH 7.5, 0.2 mg/ml; for Normalized purity after 7 days, 40° C., pH 9: pH 9, 0.2 mg/ml
Procedure, shortened: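 Peptides at 0.2 mg/ml in water adjusted to pH 4, 6, 7.5 or 9, incubated at 40° C for 7 days. Main-peak area-% by RP-HPLC (C8 ammonium formate or C18 TFA gradient, UV 220 nm), normalized to T=0 as 100.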

[3] = target: T2, human calcitonin receptor (hCTR2) (Homo sapiens, UniProt P30988); assay: hCTR2 cAMP assay (AlphaScreen) in COS7 cells; type: cell-based
T2 construct: expressed in transfected cells
T2 sequence (P30988 25-474): T1 sequence (P30988 25-474)
Procedure, shortened: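 Stable hCTR2 clone in RAMP-naïve COS7 cells stimulated 15 min at 37 °C with increasing peptide concentrations in Tyrode buffer pH 7.4 containing IBMX and 0.1% casein. cAMP in lysates measured by AlphaScreen; EC50 from 4-parameter logistic fit.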

[4] = cAMP induction, COS7 cells expressing hAMYR3, Table 1, read-out: hAMYR3 EC50
[5] = cAMP induction, COS7 cells expressing hCTR2, Table 1, read-out: hCTR2 EC50

| Structure (SMILES) | EC50 [1, 4] [nM] | Normalized purity after 7 days, 40° C., pH 4 [2] | Normalized purity after 7 days, 40° C., pH 6 [2] | Normalized purity after 7 days, 40° C., pH 7.5 [2] | Normalized purity after 7 days, 40° C., pH 9 [2] | EC50 [3, 5] [nM] | EC50 [1] [nM] | Normalized purity pH 4 (Table 5) ([2]; pH 4, repeat of Example 6 for pairs with/without Asn-Asn at 21-22) | Normalized purity pH 6 (Table 5) ([2]; pH 6, repeat of Example 6 for pairs with/without Asn-Asn at 21-22) | Normalized purity pH 7.5 (Table 5) ([2]; pH 7.5, repeat of Example 6 for pairs with/without Asn-Asn at 21-22) | Normalized purity pH 9 (Table 5) ([2]; pH 9, repeat of Example 6 for pairs with/without Asn-Asn at 21-22) | EC50 [3] [nM] |
| --- | --- | --- | --- | --- | --- | --- | --- | --- | --- | --- | --- | --- |
| CC[C@H](C)[C@@H](C(=O)N[C@@H](CC(C)C)C(=O)N[C@@H](CO)C(=O)N[C@@H](CO)C(=O)N[C@H](C(=O)N[C@@H](CCC(=O)O)C(=O)N[C@H](C(=O)NCC(=O)N[C@@H](CO)C(=O)NCC(=O)N[C@H](C(=O)N1C[C@H](O)C[C@H]1C(N)=O)[C@@H](C)O)C(C)C)[C@@H](C)O)N(C)C(=O)[C@H](C)NC(=O)CN(C)C(=O)[C@H](Cc1ccccc1)NC(=O)[C@H](CO)NC(=O)[C@H](CO)NC(=O)[C@H](CCCNC(=N)N)NC(=O)[C@H](CCC(N)=O)NC(=O)[C@H](CC(C)C)NC(=O)[C@H](Cc1ccccc1)NC(=O)[C@H](CC(=O)O)NC(=O)[C@H](C)NC(=O)[C@H](CC(C)C)NC(=O)[C@H](CCCNC(=N)N)NC(=O)[C@H](CCC(N)=O)NC(=O)[C@@H](NC(=O)[C@H](C)NC(=O)[C@@H]1CSSC[C@H](NC(=O)[C@H](CCCNC(=N)N)NC(=O)CC[C@H](NC(=O)CCCCCCCCCCCCCCCCCCC(=O)O)C(=O)O)C(=O)N[C@@H](CC(N)=O)C(=O)N[C@@H]([C@@H](C)O)C(=O)N[C@@H](C)C(=O)N[C@@H]([C@@H](C)O)C(=O)N1)[C@@H](C)O [Compound 81, [19CD]-isoGlu-R-C( )-NTAT-C( )-ATQRLADFLQRSSF-Gly(Me)-A-Ile(Me)-LSSTEVGSGT-Hyp-NH2] ({C20 diacid-γGlu}-RCNTATCATQRLADFLQRSSF[Sar]A[NMeI]LSSTEVGSGT[Hyp]-NH2; disulfide 2-7) | 0.23 | A (A = >90%) | A (A = >90%) | A (A = >90%) | A (A = >90%) | 0.1 |  |  |  |  |  |  |
| CC[C@H](C)[C@@H](C(=O)N[C@@H](CC(C)C)C(=O)N[C@@H](CO)C(=O)N[C@@H](CO)C(=O)N[C@H](C(=O)N[C@@H](CCC(=O)O)C(=O)N[C@H](C(=O)NCC(=O)N[C@@H](CO)C(=O)N[C@@H](CC(N)=O)C(=O)N[C@H](C(=O)N1C[C@H](O)C[C@H]1C(N)=O)[C@@H](C)O)C(C)C)[C@@H](C)O)N(C)C(=O)[C@H](C)NC(=O)CN(C)C(=O)[C@H](Cc1ccccc1)NC(=O)[C@H](CC(N)=O)NC(=O)[C@H](CC(N)=O)NC(=O)[C@H](CO)NC(=O)[C@H](CO)NC(=O)[C@H](CCCNC(=N)N)NC(=O)[C@H](CCC(N)=O)NC(=O)[C@H](CC(C)C)NC(=O)[C@H](Cc1ccccc1)NC(=O)[C@H](CCCC(=O)O)NC(=O)[C@H](C)NC(=O)[C@H](CC(C)C)NC(=O)[C@H](CCCNC(=N)N)NC(=O)[C@H](CC(=O)O)NC(=O)[C@@H](NC(=O)[C@H](C)NC(=O)[C@@H]1CSSC[C@H](NC(=O)[C@H](CCCNC(=N)N)NC(=O)CC[C@H](NC(=O)CCCCCCCCCCCCCCCCCCC(=O)O)C(=O)O)C(=O)N[C@@H](CCC(N)=O)C(=O)N[C@@H]([C@@H](C)O)C(=O)N[C@@H](C)C(=O)N[C@@H]([C@@H](C)O)C(=O)N1)[C@@H](C)O [Compound 100, [19CD]-isoGlu-R-C( )-QTAT-C( )-ATDRLA-Aad-FLQRSSNNF-Gly(Me)-A-Ile(Me)-LSSTEVGSNT-Hyp-NH2, reference compound] ({C20 diacid-γGlu}-RCQTATCATDRLA[Aad]FLQRSSNNF[Sar]A[NMeI]LSSTEVGSNT[Hyp]-NH2; disulfide 2-7) |  |  |  |  |  |  | 0.53 | A (A = >90%) | A (A = >90%) | A (A = >90%) | B (B = 70-90%) | 2.2 |
| CC[C@H](C)[C@@H](C(=O)N[C@@H](CC(C)C)C(=O)N[C@@H](CO)C(=O)N[C@@H](CO)C(=O)N[C@H](C(=O)N[C@@H](CCC(=O)O)C(=O)N[C@H](C(=O)NCC(=O)N[C@@H](CO)C(=O)N[C@@H](CO)C(=O)N[C@H](C(=O)N1C[C@H](O)C[C@H]1C(N)=O)[C@@H](C)O)C(C)C)[C@@H](C)O)N(C)C(=O)[C@H](C)NC(=O)CN(C)C(=O)[C@H](Cc1ccccc1)NC(=O)[C@H](CO)NC(=O)[C@H](CO)NC(=O)[C@H](CCCNC(=N)N)NC(=O)[C@H](CC(N)=O)NC(=O)[C@H](CC(C)C)NC(=O)[C@H](Cc1ccccc1)NC(=O)[C@H](Cc1c[nH]cn1)NC(=O)[C@H](C)NC(=O)[C@H](CC(C)C)NC(=O)[C@H](CCCNC(=N)N)NC(=O)[C@H](CCC(=O)O)NC(=O)[C@@H](NC(=O)[C@H](C)NC(=O)[C@@H]1CSSC[C@H](NC(=O)[C@H](CCCNC(=N)N)NC(=O)CC[C@H](NC(=O)CCCCCCCCCCCCCCCCCCC(=O)O)C(=O)O)C(=O)NCC(=O)N[C@@H]([C@@H](C)O)C(=O)N[C@@H](C)C(=O)N[C@@H]([C@@H](C)O)C(=O)N1)[C@@H](C)O [Compound 29, [19CD]-isoGlu-R-C( )-GTAT-C( )-ATERLAHFLNRSSF-Gly(Me)-A-Ile(Me)-LSSTEVGSST-Hyp-NH2] ({C20 diacid-γGlu}-RCGTATCATERLAHFLNRSSF[Sar]A[NMeI]LSSTEVGSST[Hyp]-NH2; disulfide 2-7) | 0.12 | A (A = >90%) |  | B (B = 70-90%) | B (B = 70-90%) | 0.09 |  |  |  |  |  |  |
| CC[C@H](C)[C@@H](C(=O)N[C@@H](CC(C)C)C(=O)N[C@@H](CO)C(=O)N[C@@H](CO)C(=O)N[C@H](C(=O)N[C@@H](CCC(=O)O)C(=O)N[C@H](C(=O)NCC(=O)N[C@@H](CO)C(=O)N[C@@H](CO)C(=O)N[C@H](C(=O)N1C[C@H](O)C[C@H]1C(N)=O)[C@@H](C)O)C(C)C)[C@@H](C)O)N(C)C(=O)[C@H](C)NC(=O)CN(C)C(=O)[C@H](Cc1ccccc1)NC(=O)[C@H](CO)NC(=O)[C@H](CO)NC(=O)[C@H](CCCNC(=N)N)NC(=O)[C@H](CCC(N)=O)NC(=O)[C@H](CC(C)C)NC(=O)[C@H](Cc1ccccc1)NC(=O)[C@H](Cc1c[nH]cn1)NC(=O)[C@H](C)NC(=O)[C@H](CC(C)C)NC(=O)[C@H](CCCNC(=N)N)NC(=O)[C@H](CCC(N)=O)NC(=O)[C@@H](NC(=O)[C@H](C)NC(=O)[C@@H]1CSSC[C@H](NC(=O)[C@H](CCCNC(=N)N)NC(=O)CC[C@H](NC(=O)CCCCCCCCCCCCCCCCCCC(=O)O)C(=O)O)C(=O)N[C@@H](CC(N)=O)C(=O)N[C@@H]([C@@H](C)O)C(=O)N[C@@H](C)C(=O)N[C@@H]([C@@H](C)O)C(=O)N1)[C@@H](C)O [Compound 69, [19CD]-isoGlu-R-C( )-NTAT-C( )-ATQRLAHFLQRSSF-Gly(Me)-A-Ile(Me)-LSSTEVGSST-Hyp-NH2] ({C20 diacid-γGlu}-RCNTATCATQRLAHFLQRSSF[Sar]A[NMeI]LSSTEVGSST[Hyp]-NH2; disulfide 2-7) | 0.17 | A (A = >90%) | A (A = >90%) | B (B = 70-90%) | B (B = 70-90%) | 0.12 |  |  |  |  |  |  |
